Read-outs that look alike come from different tables or passages of the source.
How the values were obtained:
rats = assay: locomotion, exploration and grooming of rats given low-dose haloperidol; assay type: in vivo, rat
[1] = for Freezing during “on” score / Motor Fluctuations (presence) score / Motor Fluctuations (severity) score / Rise from Chair score / ADL Speech score / Alternating Movements score / Changing position, i.e. turning in bed score / Dressing score / Dyskinesias (presence) score / Dyskinesias (severity) score / Feeding score / Gait score / Handwriting score / Hygiene score / Postural Tremor score / Rigidity score / Speech score / Swallowing score / Walking score / Rest Tremor score: 40 micrograms haloperidol/day oral, one patient; for Freezing during “on” score / Motor Fluctuations (presence) score / Motor Fluctuations (severity) score / Rise from Chair score: Baseline Time 1 score 0; for ADL Speech score / Alternating Movements score / Changing position, i.e. turning in bed score / Dressing score / Dyskinesias (presence) score / Dyskinesias (severity) score / Feeding score / Gait score / Handwriting score / Hygiene score / Postural Tremor score / Rigidity score / Speech score / Swallowing score / Walking score: Baseline Time 1 score 1; for Rest Tremor score: Baseline Time 1 score 2
[2] = clinical use as antipsychotic; cited from earlier work
dopamine D2 receptors = dopamine D2 receptors (Homo sapiens, UniProt P14416); details: PET with [11C]raclopride, over 24 hours, schizophrenia patients and volunteers; cited from earlier work
[3] = molecular target: human cloned dopamine D2 receptors (Homo sapiens, UniProt P14416); details: cited from earlier work

## O=C(CCCN1CCC(O)(c2ccc(Cl)cc2)CC1)c1ccc(F)cc1 [haloperidol]
rats; 0.0025 mg/kg/day, 5 days
  behaviour of the animals: heightened locomotion, active exploration and good grooming
rats; 0.005 mg/kg, on days 3-5 or upon stopping the haloperidol
  behaviour of the animals: spontaneously increased locomotion and well-being
rats; haloperidol 0.03 mg/kg down to 0.0025 mg/kg
  behaviour of the animals: heightened locomotion and active exploration
[1]; Score Time 2
  Freezing during “on” score: 0
  Motor Fluctuations (presence) score: 0
  Motor Fluctuations (severity) score: 0
  Rise from Chair score: 0
  ADL Speech score: 0
  Alternating Movements score: 0
  Changing position, i.e. turning in bed score: 1
  Dressing score: 1
  Dyskinesias (presence) score: 0
  Dyskinesias (severity) score: 0
  Feeding score: 1
  Gait score: 0
  Handwriting score: 1
  Hygiene score: 1
  Postural Tremor score: 1
  Rigidity score: 2
  Speech score: 0
  Swallowing score: 0
  Walking score: 0
  Rest Tremor score: 2
[1]; Score Time 3
  Freezing during “on” score: 0
  Motor Fluctuations (presence) score: 0
  Motor Fluctuations (severity) score: 0
  Rise from Chair score: 0
  ADL Speech score: 0
  Alternating Movements score: 1
  Changing position, i.e. turning in bed score: 1
  Dressing score: 1
  Dyskinesias (presence) score: 0
  Dyskinesias (severity) score: 0
  Feeding score: 1
  Gait score: 1
  Handwriting score: 1
  Hygiene score: 1
  Postural Tremor score: 1
  Rigidity score: 2
  Speech score: 0
  Swallowing score: 0
  Walking score: 0
  Rest Tremor score: 2
[1]; Time 1 or Time 2, apart from resting tremor of right hand present at all times
  clinical observation: involuntary movements: No involuntary movements noted
[1]; baseline to Time 1 and 2, most noticeable walking and overall presentation
  overall conclusion: A slight improvement from baseline to Time 1 and 2 on certain markers
[1]; elbow joint, no rigidity on left, 40 micrograms/day oral
  clinical observation: rigidity on palpation: Slight increase in rigidity on palpation of elbow joint on right side
[1]; time 1 and 2 vs baseline, 40 micrograms/day oral
  clinical observation: appearance, facial features: appeared brighter, less flat facial features

## Cc1cc2c(s1)Nc1ccccc1N=C2N1CCN(C)CC1 [olanzapine]
[2]
  extrapyramidal signs (EPS) in patients: dose-dependent incidence of extrapyramidal signs

## OCCOCCN1CCN(C2=Nc3ccccc3Sc3ccccc32)CC1 [quetiapine]
[2]
  extrapyramidal signs (EPS) in patients: essentially no EPS occurs
Dopamine D2 receptors
  time course of human striatum D2 occupancy: rapidly falls off within 24 hours

## [^3H]quetiapine
[3]
  rate of release from D2 receptors relative to [3H]haloperidol or [3H]chlorpromazine: at least one hundred times faster

Reference: patent US9192605B2, “Compositions and methods for treating parkinson's disease” (priority 2009, dated 2015)
